# In patent publication US20090233795A1, “Fungicidal Mixtres Based On 3-Monosubstituted N-Bipenyl-Pyrazolecarboxamides” (BASF Akitengesellschaft, priority 2005, published 2009):
# Where two headings read alike, the source gives them in different places.
# How the values were obtained:
# Pyrenophora teres = assay: Activity against net blotch of barley, 1 day protective application; type: in vivo, Pyrenophora [syn. Drechslera] teres; settings: sprayed 24 hours before inoculation, rated after 6 days
# Botrytis cinerea = assay: Activity against gray mold on bell pepper leaves, 1 day protective application; type: in vivo; settings: sprayed 1 day before inoculation, rated after 5 days
# Puccinia recondita [1] = assay: Curative activity against brown rust of wheat; type: in vivo; settings: sprayed the day after inoculation, 7 days
# Pyricularia oryzae = type: cell-based; settings: microtiter plate, 405 nm, day 7
# [2] = tested on: Erysiphe [syn. Blumeria] graminis forma specialis. tritici; assay: Activity against mildew of wheat; type: in vivo; settings: 1 mg/l, sprayed 24 hours before inoculation, rated after 7 days
# Puccinia recondita [3] = assay: Protective activity against brown rust of wheat; type: in vivo; settings: 16 mg/l, sprayed the day before inoculation
# Septoria tritici = assay: Activity against the speckled leaf blotch pathogen in the microtiter test; type: cell-based; settings: microtiter plate, 405 nm, day 7
molecule,measurement,setting,value
"Fc1ccc([C@]2(Cn3cncn3)O[C@H]2c2ccccc2Cl)cc1 (racemic) [epoxiconazole, (2RS,3SR)-1-[3-(2-chlorophenyl)-2,3-epoxy-2-(4-fluorophenyl)propyl]-1H-1,2,4-triazole]",Observed activity (% infection),Pyrenophora teres; 1 mg/l,0%
"CC1CCN(c2c(-c3c(F)cc(F)cc3F)c(Cl)nc3ncnn23)CC1 [5-chloro-7-(4-methylpiperidin-1-yl)-6-(2,4,6-trifluorophenyl)-[1,2,4]triazolo[1,5-a]pyrimidine, reference compound]",Observed activity (% infection),Botrytis cinerea; 4 mg/l,40%
same,Observed activity (% infection),Puccinia recondita [1]; 1 mg/l,0%
"Cn1cc(C(=O)Nc2ccccc2-c2cccc(Cl)c2)c(C(F)(F)F)n1 [No. I.1, N-(3′-chlorobiphenyl-2-yl)-1-methyl-3-trifluoromethyl-1H-pyrazole-4-carboxamide]",melting point,,92 to 94 °C
same,Observed activity (% infection),Pyrenophora teres; 4 mg/l,26%
same,Observed activity (% infection),Pyricularia oryzae; 4 mg/l,0%
same,Observed activity (% infection),Botrytis cinerea; 1 mg/l,0%
same,Observed activity (% infection),[2],0%
"Cn1cc(C(=O)Nc2ccccc2-c2cccc(C(F)(F)F)c2)c(C(F)(F)F)n1 [No. I.4, N-(3′-trifluoromethylbiphenyl-2-yl)-1-methyl-3-trifluoromethyl-1H-pyrazole-4-carboxamide]",Observed activity (% infection),Puccinia recondita [3],0%
same,melting point,,132 to 134 °C
same,Observed activity (% infection),Septoria tritici; 0.25 mg/l,20%
"Cn1cc(C(=O)Nc2ccccc2-c2cccc(C#N)c2)c(C(F)(F)F)n1 [No. I.5, 1-methyl-3-trifluoromethyl-N-(ortho-(3-cyanophenyl)phenyl)pyrazole-4-carboxamide]",melting point,,76 to 78 °C
"Cn1cc(C(=O)Nc2ccccc2-c2cccc(C(F)(F)F)c2)c(C(F)F)n1 [No. I.9, N-(3′-trifluoromethylbiphenyl-2-yl)-1-methyl-3-difluoromethyl-1H-pyrazole-4-carboxamide]",melting point,,124 to 125 °C
same,Observed activity (% infection),Puccinia recondita [1]; 0.25 mg/l,11%
same,Observed activity (% infection),[2],0%
"Cc1nn(C)cc1C(=O)Nc1ccccc1-c1cccc(Cl)c1 [No. I.10, N-(3′-chlorobiphenyl-2-yl)-1,3-dimethyl-1H-pyrazole-4-carboxamide]",melting point,,104 to 106 °C
"Cn1cc(C(=O)Nc2ccccc2-c2cccc(Cl)c2)c(CF)n1 [No. I.11, N-(3′-chlorobiphenyl-2-yl)-1-methyl-3-fluoromethyl-1H-pyrazole-4-carboxamide]",melting point,,96 to 99 °C
"Cn1cc(C(=O)Nc2ccccc2-c2cccc(Cl)c2)c(C(F)F)n1 [No. I.12, N-(3′-chlorobiphenyl-2-yl)-1-methyl-3-difluoromethyl-1H-pyrazole-4-carboxamide]",melting point,,110 to 112 °C
"Cn1cc(C(=O)Nc2ccccc2-c2cccc(F)c2)c(CF)n1 [No. I.13, N-(3′-fluorobiphenyl-2-yl)-1-methyl-3-fluoromethyl-1H-pyrazole-4-carboxamide]",melting point,,138 to 141 °C
"Cn1cc(C(=O)Nc2ccccc2-c2cccc(F)c2)c(C(F)F)n1 [No. I.14, N-(3′-fluorobiphenyl-2-yl)-1-methyl-3-difluoromethyl-1H-pyrazole-4-carboxamide]",melting point,,130 to 135 °C
"Cc1nn(C)c(F)c1C(=O)Nc1ccccc1-c1cccc(C#N)c1 [No. I.15, N-(3′-cyanobiphenyl-2-yl)-1,3-dimethyl-5-fluoro-1H-pyrazole-4-carboxamide]",melting point,,137 to 138 °C
"Cc1nn(C)c(F)c1C(=O)Nc1ccccc1-c1cccc([N+](=O)[O-])c1 [No. I.16, N-(3′-nitrobiphenyl-2-yl)-1,3-dimethyl-5-fluoro-1H-pyrazole-4-carboxamide]",melting point,,137 to 139 °C
"Cc1nn(C)c(F)c1C(=O)Nc1ccccc1-c1cccc(C(F)(F)F)c1 [No. I.17, N-(3′-trifluoromethylbiphenyl-2-yl)-1,3-dimethyl-5-fluoro-1H-pyrazole-4-carboxamide]",melting point,,113 to 114 °C
"COc1ccc(C(=CC(=O)N2CCOCC2)c2ccc(Cl)cc2)cc1OC [dimethomorph, 3-(4-chlorophenyl)-3-(3,4-dimethoxyphenyl)-1-morpholin-4-yl-propenone]",Observed activity (% infection),Pyrenophora teres; 16 mg/l,0%
same,Observed activity (% infection),Puccinia recondita [1]; 1 mg/l,0%
"COc1cc(C)c(C(=O)c2c(OC)ccc(Br)c2C)c(OC)c1OC [metrafenone, 3′-bromo-2,3,4,6′-tetramethoxy-2′,6-dimethylbenzophenone]",Observed activity (% infection),Pyrenophora teres; 16 mg/l,0%
same,Observed activity (% infection),Puccinia recondita [1]; 1 mg/l,0%
"COC(=O)N(OC)c1ccccc1COc1ccn(-c2ccc(Cl)cc2)n1 [pyraclostrobin, methyl N-{2-[1-(4-chlorophenyl)-1H-pyrazol-3-yloxymethyl]phenyl}(N-methoxy)carbamate, reference compound]",Observed activity (% infection),[2],40%
"CC1(C)CC/C(=C\c2ccc(Cl)cc2)C1(O)Cn1cncn1 (stereo not shown) [triticonazole, (5E)-5-[(4-chlorophenyl)methylene]-2,2-dimethyl-1-(1H-1,2,4-triazol-1-ylmethyl)cyclopentanol, reference compound]",Observed activity (% infection),[2],40%
"zinc ammoniate ethylenebis(dithiocarbamate) [metiram, reference compound]",Observed activity (% infection),Pyricularia oryzae; 16 mg/l,52%
same,Observed activity (% infection),Septoria tritici; 1 mg/l,1%
